pIC50: −log10 of the molar value.

The subject of test [1] is HCT-116. Kind of test: Antitumor activity against human HCT116 cells after 72 hrs by MTT assay. The settings on record: HCT-116, 72 h. (In general: Tetrazolium assays rely on reduction of a dye to a coloured formazan, in cell work by metabolically active cells.)
In test [2] the test system is MCF7. Kind of test: Antitumor activity against human MCF7 cells after 72 hrs by MTT assay. The settings on record: MCF7, 72 h.
The test system of test [3] is NCI-H460. Kind of test: Antitumor activity against human H460 cells after 72 hrs by MTT assay. The settings on record: NCI-H460, 72 h.
The subject of test [4] is SW-620. Kind of test: Antitumor activity against human SW620 cells after 72 hrs by MTT assay. The conditions noted are these: SW-620, 72 h.
Test [5] has as its system MOLT-4. Kind of test: Antitumor activity against human MOLT4 cells after 72 hrs by MTT assay. The conditions noted are these: MOLT-4, 72 h.
For test [6], the system named is SW-620. Kind of test: Selectivity ratio IC50 of 5-fluorouracil to compound for human SW620 cells. In kind it is functional.

In general, pIC50 refers to the IC50 on a negative log10 scale, so that one unit is a factor of ten. A higher pIC50 goes with a low IC50. On to `CC(=O)OCCc1c(C)nc(Cl)nc1Cl`, for which the pIC50 in test [1], in test [2], in test [3], in test [4] and in test [5] was < 4.00 throughout.
With `COc1nc(Cl)nc(C)c1CCF`, the pIC50 in test [1], in test [2], in test [3] and in test [4] was < 4.00 throughout.
Regarding `Nc1ccn([C@@H]2O[C@H](CO)[C@@H](O)[C@@H]2O)c(=O)n1` [CYTARABINE], the pIC50 is 7.00 in test [1]; ≤ 4.00 in test [2]; 7.00 in test [3]; 4.52 in test [4]; 6.00 in test [5].
For the compound `COc1ccc(C(OCCc2c(C)nc(OC)nc2OC)(c2ccccc2)c2ccccc2)cc1`, the pIC50 in test [1] is 5.40; in test [2] it was 5.22; in test [3], 4.30; in test [4], 4.70; in test [5] it was 5.30.
As for `O=c1[nH]c(CC(O)COCc2ccccc2)c(CCCl)c(=O)[nH]1` (configuration not stated), the pIC50 in test [1], in test [2], in test [3], in test [4] and in test [5] was < 4.00 in each case.
Turning to `COc1nc(Cl)nc(C)c1CCOC(C)=O`, the pIC50 in test [1], in test [2], in test [3], in test [4] and in test [5] was < 4.00 each time.
Take `COc1nc(C)c(CCF)c(OC)n1`: the pIC50 in test [1], in test [2], in test [3] and in test [4] was < 4.00 in each case.
On to `COc1nc(C)c(CCOC(C)=O)c(OC)n1`, for which the pIC50 in test [1] is 4.40; in test [2], 4.19; in test [3], 4.33; in test [4] it was 4.36.
Take `Cc1nc(Cl)nc(Cl)c1CCCl`: the pIC50 in test [1] was 5.70; in test [2] it was 5.10; in test [3] it was 5.52; in test [4], 6.40; in test [5], 5.30. The “Ratio IC50” value in test [6] worked out at 20.
Regarding `Cc1[nH]c(=O)[nH]c(=O)c1CCO`, the pIC50 in test [1], in test [2], in test [3], in test [4] and in test [5] was < 4.00 in each case.
On to `Cc1[nH]c(=O)[nH]c(=O)c1CCCl`, for which the pIC50 in test [1], in test [2], in test [3], in test [4] and in test [5] was < 4.00 in each case.
As to `COc1nc(C)c(CCCl)c(OC)n1`, the pIC50 in test [1], in test [2], in test [3], in test [4] and in test [5] was < 4.00 throughout.
Take `COc1nc(C)c(CCO)c(OC)n1`: the pIC50 in test [1], in test [2], in test [3], in test [4] and in test [5] was < 4.00 in each case.
On to `COc1nc(CC(O)COCc2ccccc2)c(CCCl)c(OC)n1` (configuration not stated), for which the pIC50 in test [1] was 4.80; in test [2], 4.59; in test [3], 4.12; in test [4] it was 4.70; in test [5] it was 4.72.
Taken in the same sequence, the figures for `CC(=O)OCCc1c(C)[nH]c(=O)[nH]c1=O` were < 4.00, < 4.00, < 4.00, < 4.00 and < 4.00.
For the compound `O=c1[nH]cc(F)c(=O)[nH]1` [FLUOROURACIL], the pIC50 in test [5] is 7.52.
For `COc1nc(C)c2c(n1)OCC2`, the pIC50 in test [1], in test [2], in test [3] and in test [4] was < 4.00 each time.
`COc1nc(Cl)nc(C)c1CCO`: the pIC50 in test [1], in test [2], in test [3] and in test [4] was < 4.00 throughout.

The record behind these values is ChEMBL document CHEMBL1156336, “Synthesis, X-ray crystal structure study and antitumoral evaluations of 5,6-disubstituted pyrimidine derivatives” (Bioorg Med Chem, 2010).
